Source: ChEMBL document CHEMBL5338706, “Discovery of a potent and selective proteolysis targeting chimera (PROTAC) degrader of NSD3 histone methyltransferase” (Eur J Med Chem, 2022)
Active and inactive are the calls of the source. No cut-off for these calls is given here.

What was measured:
NCI-H1703 [1] = assay: Downregulation of IGFBP3 in human NCI-H1703 cells at […] measured after 72 hrs by RNA sequencing assay; format: functional, cell-based; conditions: dose 7.5 µM
[2] = molecular target: T1, Histone-lysine N-methyltransferase NSD2 (Homo sapiens) (UniProt O96028); assay: Induction of NSD2 degradation in human A549 cells at 5 to 10 uM incubated for 72 hrs by Western blot analysis; format: cell-based; conditions: dose 5-10 µM
T1 sequence (whole entry): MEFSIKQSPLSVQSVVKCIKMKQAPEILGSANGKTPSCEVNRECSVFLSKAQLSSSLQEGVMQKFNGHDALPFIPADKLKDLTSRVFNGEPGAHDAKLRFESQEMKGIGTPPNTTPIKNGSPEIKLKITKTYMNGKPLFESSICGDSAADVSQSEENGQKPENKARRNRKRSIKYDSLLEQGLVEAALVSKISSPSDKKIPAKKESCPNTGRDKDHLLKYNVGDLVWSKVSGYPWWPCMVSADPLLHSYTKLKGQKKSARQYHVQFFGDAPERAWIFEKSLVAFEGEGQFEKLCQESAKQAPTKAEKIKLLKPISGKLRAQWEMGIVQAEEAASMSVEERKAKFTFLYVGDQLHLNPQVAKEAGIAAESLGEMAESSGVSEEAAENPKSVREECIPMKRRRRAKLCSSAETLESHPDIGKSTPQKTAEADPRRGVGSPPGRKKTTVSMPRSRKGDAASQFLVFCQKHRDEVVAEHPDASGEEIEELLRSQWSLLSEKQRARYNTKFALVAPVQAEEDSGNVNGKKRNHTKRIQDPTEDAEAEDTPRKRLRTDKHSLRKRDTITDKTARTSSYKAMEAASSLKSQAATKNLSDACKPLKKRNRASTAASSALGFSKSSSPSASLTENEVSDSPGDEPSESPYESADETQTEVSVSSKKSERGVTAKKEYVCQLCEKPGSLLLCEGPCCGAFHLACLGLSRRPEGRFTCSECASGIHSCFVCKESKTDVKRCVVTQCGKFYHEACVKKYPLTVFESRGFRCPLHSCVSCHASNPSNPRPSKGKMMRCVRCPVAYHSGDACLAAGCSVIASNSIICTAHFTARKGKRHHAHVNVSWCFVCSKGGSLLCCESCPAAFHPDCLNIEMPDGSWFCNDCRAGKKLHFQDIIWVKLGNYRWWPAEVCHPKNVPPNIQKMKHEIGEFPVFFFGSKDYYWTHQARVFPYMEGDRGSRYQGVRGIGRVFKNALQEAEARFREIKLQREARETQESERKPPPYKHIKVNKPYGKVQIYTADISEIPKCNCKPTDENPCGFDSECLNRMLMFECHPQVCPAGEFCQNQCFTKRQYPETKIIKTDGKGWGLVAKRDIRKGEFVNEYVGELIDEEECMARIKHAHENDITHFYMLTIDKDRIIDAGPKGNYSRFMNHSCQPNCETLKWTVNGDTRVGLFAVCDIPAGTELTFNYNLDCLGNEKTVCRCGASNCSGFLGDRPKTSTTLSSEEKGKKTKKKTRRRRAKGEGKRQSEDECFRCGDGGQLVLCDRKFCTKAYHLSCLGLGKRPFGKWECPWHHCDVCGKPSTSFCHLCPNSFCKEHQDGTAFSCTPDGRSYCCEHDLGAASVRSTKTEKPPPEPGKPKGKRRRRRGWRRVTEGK

NCI-H1703 [3] = assay: Induction of apoptosis in human NCI-H1703 cells assessed as early apoptotic cells at […] measured after 72 hrs by PI/Annexin-V staining based flow cytometry analysis (reference value: 1.47% ); format: functional; conditions: dose 7.5 µM
[4] = Downregulation of c-Myc level in human NCI-H1703 cells at […] by measuring fold change by Western blot analysis relative to control; format: functional; conditions: dose 7.5 µM
NCI-H520 = assay: Induction of apoptosis in human NCI-H520 cells assessed as decrease in NSD3 protein expression at 5 uM by measuring fold change by Western blot analysis relative to control; format: functional
NCI-H1703 [5] = assay: Induction of apoptosis in human NCI-H1703 cells assessed as decrease in Bcl-XL protein expression at […] by measuring fold change by Western blot analysis relative to control; format: functional; conditions: dose 7.5 µM
[6] = Downregulation of NSD3 level in human NCI-H1703 cells at […] by measuring fold change by Western blot analysis relative to control; format: functional; conditions: dose 7.5 µM
[7] = Downregulation of CDC25A level in human NCI-H1703 cells at 3 uM by measuring fold change by Western blot analysis relative to control; format: functional
[8] = molecular target: Histone-lysine N-methyltransferase, H3 lysine-36 specific (Homo sapiens) (UniProt Q96L73); assay: Induction of NSD1 degradation in human A549 cells at 5 to 10 uM incubated for 72 hrs by Western blot analysis; format: cell-based; conditions: dose 5-10 µM
Sequence of Histone-lysine N-methyltransferase, H3 lysine-36 specific (Homo sapiens) (Q96L73 whole entry): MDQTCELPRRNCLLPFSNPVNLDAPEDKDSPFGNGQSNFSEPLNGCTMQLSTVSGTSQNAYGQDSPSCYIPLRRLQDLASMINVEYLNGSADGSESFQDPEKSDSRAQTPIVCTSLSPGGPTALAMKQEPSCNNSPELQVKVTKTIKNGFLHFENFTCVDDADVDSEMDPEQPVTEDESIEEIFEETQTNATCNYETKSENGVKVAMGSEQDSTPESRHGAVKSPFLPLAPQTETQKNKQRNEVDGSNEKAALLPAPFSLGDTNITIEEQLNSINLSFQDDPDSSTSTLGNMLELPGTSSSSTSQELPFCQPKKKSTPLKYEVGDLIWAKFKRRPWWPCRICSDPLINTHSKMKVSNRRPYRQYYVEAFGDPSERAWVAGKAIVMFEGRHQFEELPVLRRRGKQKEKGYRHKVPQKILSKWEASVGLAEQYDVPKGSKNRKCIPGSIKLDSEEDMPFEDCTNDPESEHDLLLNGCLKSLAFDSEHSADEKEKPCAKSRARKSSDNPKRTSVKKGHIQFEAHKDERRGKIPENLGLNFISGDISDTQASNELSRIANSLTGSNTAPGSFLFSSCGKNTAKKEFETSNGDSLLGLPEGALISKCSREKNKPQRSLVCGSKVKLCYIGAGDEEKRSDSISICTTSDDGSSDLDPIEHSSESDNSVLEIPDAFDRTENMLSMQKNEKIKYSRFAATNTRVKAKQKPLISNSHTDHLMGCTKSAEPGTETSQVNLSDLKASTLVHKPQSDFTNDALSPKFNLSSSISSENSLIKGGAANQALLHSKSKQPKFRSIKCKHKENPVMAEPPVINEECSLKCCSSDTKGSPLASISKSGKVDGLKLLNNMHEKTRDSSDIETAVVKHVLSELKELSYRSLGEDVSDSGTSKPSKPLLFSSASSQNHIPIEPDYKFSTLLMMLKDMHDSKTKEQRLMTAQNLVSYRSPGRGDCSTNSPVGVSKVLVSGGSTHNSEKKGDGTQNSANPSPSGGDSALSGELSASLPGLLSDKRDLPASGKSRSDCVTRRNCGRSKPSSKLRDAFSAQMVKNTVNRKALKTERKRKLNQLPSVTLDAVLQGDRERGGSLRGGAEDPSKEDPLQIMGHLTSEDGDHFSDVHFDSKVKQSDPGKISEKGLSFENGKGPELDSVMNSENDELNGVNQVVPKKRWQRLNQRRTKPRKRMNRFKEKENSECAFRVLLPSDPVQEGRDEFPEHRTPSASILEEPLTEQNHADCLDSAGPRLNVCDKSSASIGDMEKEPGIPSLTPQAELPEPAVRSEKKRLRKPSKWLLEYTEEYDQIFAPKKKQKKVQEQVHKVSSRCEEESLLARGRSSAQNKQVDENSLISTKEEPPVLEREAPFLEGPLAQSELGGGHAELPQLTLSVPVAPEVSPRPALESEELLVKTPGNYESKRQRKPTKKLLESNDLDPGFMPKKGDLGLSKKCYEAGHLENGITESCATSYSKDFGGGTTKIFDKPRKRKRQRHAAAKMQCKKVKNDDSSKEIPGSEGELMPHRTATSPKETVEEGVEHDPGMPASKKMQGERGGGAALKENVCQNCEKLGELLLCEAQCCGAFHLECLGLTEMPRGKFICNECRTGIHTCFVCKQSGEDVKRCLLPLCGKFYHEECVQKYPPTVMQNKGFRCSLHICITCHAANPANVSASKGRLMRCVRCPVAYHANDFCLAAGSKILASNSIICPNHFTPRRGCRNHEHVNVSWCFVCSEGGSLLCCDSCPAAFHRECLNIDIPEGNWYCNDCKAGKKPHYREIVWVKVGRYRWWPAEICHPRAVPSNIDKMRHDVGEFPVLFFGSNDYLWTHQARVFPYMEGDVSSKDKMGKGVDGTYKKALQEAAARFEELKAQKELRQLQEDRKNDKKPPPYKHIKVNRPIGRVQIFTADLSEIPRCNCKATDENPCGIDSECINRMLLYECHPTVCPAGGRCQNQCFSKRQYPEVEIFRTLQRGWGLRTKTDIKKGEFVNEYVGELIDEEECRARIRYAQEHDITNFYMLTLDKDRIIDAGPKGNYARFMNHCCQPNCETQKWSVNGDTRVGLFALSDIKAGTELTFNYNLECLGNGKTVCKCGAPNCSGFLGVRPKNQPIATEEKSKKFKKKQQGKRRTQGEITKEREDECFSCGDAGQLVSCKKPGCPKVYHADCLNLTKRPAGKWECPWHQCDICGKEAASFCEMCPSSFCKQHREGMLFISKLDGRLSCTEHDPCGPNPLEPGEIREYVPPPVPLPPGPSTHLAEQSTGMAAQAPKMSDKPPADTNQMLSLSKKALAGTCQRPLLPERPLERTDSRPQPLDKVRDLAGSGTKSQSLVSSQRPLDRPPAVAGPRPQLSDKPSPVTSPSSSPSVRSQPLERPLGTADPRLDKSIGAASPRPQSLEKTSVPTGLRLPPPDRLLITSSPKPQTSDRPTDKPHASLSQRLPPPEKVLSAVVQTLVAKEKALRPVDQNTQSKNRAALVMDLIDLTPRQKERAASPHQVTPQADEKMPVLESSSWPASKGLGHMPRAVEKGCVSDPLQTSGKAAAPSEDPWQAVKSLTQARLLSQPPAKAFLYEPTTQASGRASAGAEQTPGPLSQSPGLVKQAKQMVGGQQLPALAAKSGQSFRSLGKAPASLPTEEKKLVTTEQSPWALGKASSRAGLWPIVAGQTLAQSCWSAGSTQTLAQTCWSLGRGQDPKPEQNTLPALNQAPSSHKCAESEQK

NCI-H1703 [9] = assay: Induction of apoptosis in human NCI-H1703 cells assessed as decrease in MCL-1 protein expression at 10 uM by measuring fold change by Western blot analysis relative to control; format: functional

With `Cc1cc(CNCCCCCCCCCCC(=O)N[C@H](C(=O)N2C[C@H](O)C[C@H]2C(=O)N[C@@H](C)c2ccc(-c3scnc3C)cc2)C(C)(C)C)cc(C)c1-c1ncn(C)c1-c1ccnc2cc(F)ccc12` the Activity (NCI-H1703 [1]) was “Active”, the Activity [2] was “inactive” and the Activity (NCI-H1703 [3]) was 3.68%. For the same compound, the “fold change (FC)” value [4] was 0.72, the “fold change (FC)” value (NCI-H520) was 0.83 and the “fold change (FC)” value (NCI-H1703 [5]) was 0.67. The “fold change (FC)” value [6] was 0.66, the “fold change (FC)” value [7] was 0.81 and the Activity [8] was “inactive”. The “fold change (FC)” value (NCI-H1703 [9]) was 0.53.
